Values after ≈ are worked out from the molar mass of the structure shown. Like-named read-outs stand apart in the source and are kept apart here. Numbered stars: 1 amine (or outer) side, 2 acyl side, 3 side chain; on linkers, the order of the positions; unused ones are H or OH. Bridge positions count the residues as written; N and C are the ends. Peptide text beside a SMILES is read from it. I, II: the chains in the order shown. OSiEt2O = CC[Si](CC)(O[*:1])O[*:2]
What was measured:
Medulloblastome = test: Effect on medulloblastomas
[1] = tested on: IEC6 mausartige Enterozyten; test: subG1 apoptotic fraction, propidium iodide, flow cytometry; format: cell-based; settings: 50 µg/ml, 4 Tage
Method: (§1) Die Zellen (IEC6 mausartige Enterozyten; Panc1 Pankreaskrebszellen; Colo205 Kolonkarzinom) wurden mit 50 µg/ml Silanen inkubiert und nach 4-tägiger Aussetzung auf DNA eingefärbt (Propidiumiodid). Die SubG1 Zellteilung wurde mittels Durchflusscytometrie bestimmt.

[2] = tested on: Panc1 Pankreaskrebszellen; test: as above; format: cell-based; settings: 50 µg/ml, 4 Tage
Method: as §1

Colo205 Kolonkarzinom = test: as above; format: cell-based; settings: 50 µg/ml, 4 Tage
Method: as §1

Osteosarkome = test: Effect on osteosarcomas
Maus = test: Pharmacological observation in the mouse (central, vegetative and toxic effects, acute toxicity); format: in vivo
From the text: Pharmakologische Untersuchungen an der Maus
Die Verbindungen wurden an der Maus auf zentrale, vegetative und toxische Effekte geprüft. Durch systemische Einzelbeobachtungen sind neben der akuten Toxizität (orienberende letale Dosis, oLD) zentrale und vegetative Wirkungen der Testsubstanzen, insbesondere Effekte auf die Motorik und das Reaktionsvermögen, die Haut- und Rektaltemperatur sowie auf die Pupillenmotorik erfasst worden. Die getesteten Dosierungen betrugen 5 •10^-4, 1 • 10^-3 und 5 • 10^-3 mol/kg Körpergewicht Letale Wirkungen konnten bei keiner der Verbindungen beobachtet werden. Die oLD lag für Di(tetradecanoyloxy)dimethylsilan und Di(octadecanoyloxy)dimethylsilan unter 1 • 10^-3 mol/kg Körpergewicht für alle übrigen Verbindungen unter 5 • 10^-3 mollkg Körpergewicht.

[3] = tested on: WI38 - humane embryonale Fibroblasten; test: MTT assay / EZ4U test, 4 days; format: cell-based; settings: Homo sapiens
Method: (§2) Die Silane 1, 5, 9, 10, 11, 13, 15, 16 wurden in Ethanol gelöst und in MTT Assays in einer anfänglichen Konzentration von 200 µg/ml (5 Lösungsschritte 200 - 12.5 µg/ml) verwendet. Die Platten wurde für eine Dauer.von 4 Tagen inkubiert und die Entwicklungsfähigkeit mithilfe des EZ4U Test bestimmt. Die IC50 Werte wurden ausgehend von Dosierungs-Reaktions-Linien berechnet Zelllinien: Colo 205 and HT29 - Kolonkarzinom; BxPC3 and MIAPaCa2 - Pankreaskrebs; CRO2B - karzinoid, A431 Epidermalkarzinom; normale Zellen: WI38 - humane embryonale Fibroblasten; NIH3T3 - mausartige Fibroblasten; IEC6 - mausartige Enterozyten.

BxPC3 - Pankreaskrebs = test: MTT assay / EZ4U test, 4 days; format: cell-based; settings: Homo sapiens
Method: as §2

A431 Epidermalkarzinom = test: MTT assay / EZ4U test, 4 days; format: cell-based; settings: Homo sapiens
Method: as §2

CRO2B - karzinoid = test: MTT assay / EZ4U test, 4 days; format: cell-based; settings: read-out: IC50 CR02B
Method: as §2

[4] = tested on: IEC6 - mausartige Enterozyten; test: MTT assay / EZ4U test, 4 days; format: cell-based; settings: Rattus norvegicus
Method: as §2

HT29 - Kolonkarzinom = test: MTT assay / EZ4U test, 4 days; format: cell-based; settings: Homo sapiens
Method: as §2

MIAPaCa2 - Pankreaskrebs = test: MTT assay / EZ4U test, 4 days; format: cell-based; settings: Homo sapiens
Method: as §2

[5] = tested on: NIH3T3 - mausartige Fibroblasten; test: MTT assay / EZ4U test, 4 days; format: cell-based; settings: Mus musculus
Method: as §2

Normale Zellen = test: Mean IC50 over all normal cell lines; format: cell-based; settings: read-out: IC50 Normale Zellen (Durchschnitt ± SD)
Method: as §2
(§3) Mittelwerte-IC50 für alle Krebs- oder normalen Zelllinien: […]

Krebszellen = test: Mean IC50 over all cancer cell lines; format: cell-based; settings: read-out: IC50 Krebszellen (Durchschnitt ± SD)
Method: as §2, §3

[6] = tested on: BxPC3 (pankreatisches Adenokarzinom); test: MTT test, triplicate, two-fold dilutions; format: cell-based; settings: Homo sapiens
Method: (§4) Die Silan wurden in Ethanol aufgelöst und in Zellkulturmedien in Konzentrationen von bis zu 500 µg/ml resuspendiert. Es wurden MTT Tests in dreifacher Ausführung durchgeführt, für welche doppelte Lösungen (7 Schritte) und colo205 (Kofon-Karzinom), BxPC3 (pankreatisches Adenokarzinom) sowie T47D (Brustkrebs) benutzt wurden.

colo205 (Kofon-Karzinom) = test: MTT test, triplicate, two-fold dilutions; format: cell-based; settings: Homo sapiens
Method: as §4

T47D (Brustkrebs) = test: MTT test, triplicate, two-fold dilutions; format: cell-based; settings: Homo sapiens, T47D, read-out: IC50 T47D
Method: as §4

Colo 205 - Kolonkarzinom = test: MTT assay / EZ4U test, 4 days; format: cell-based; settings: Homo sapiens, COLO 205, read-out: IC50 Colo205
Method: as §2

[7] = MIA PaCa-2, read-out: IC50 MlAPaCa2
[8] = COLO 205, read-out: IC50 Colo205

For CC[Si](CC)(OC(=O)[C@H](Cc1ccccc1)NC(=O)[C@H](Cc1ccccc1)NC(=O)[C@H](Cc1ccccc1)NC(=O)[C@H](Cc1ccccc1)NC(=O)[C@H](Cc1ccccc1)NC(=O)[C@H](Cc1ccccc1)NC(=O)[C@H](Cc1ccccc1)NC(=O)[C@H](Cc1ccccc1)NC(=O)[C@@H](N)Cc1ccccc1)OC(=O)[C@H](Cc1ccccc1)NC(=O)[C@H](Cc1ccccc1)NC(=O)[C@H](Cc1ccccc1)NC(=O)[C@H](Cc1ccccc1)NC(=O)[C@H](Cc1ccccc1)NC(=O)[C@H](Cc1ccccc1)NC(=O)[C@H](Cc1ccccc1)NC(=O)[C@H](Cc1ccccc1)NC(=O)[C@@H](N)Cc1ccccc1 [Diethyl bis(nonaphenylalanyl)silylester] (I: H-FFFFFFFFF / II: H-FFFFFFFFF; linker I:C-II:C via OSiEt2O), the “Wirkung gegen Medulloblastome” value (Medulloblastome) was “zeigen eine Wirkung”.

In the case of CCCCCCCCCCCCCCCC(=O)O[Si](C)(C)OC(=O)CCCCCCCCCCCCCCC [Si16, Di (hexadecanoyloxy) dimethylsilan], the “subG1 apoptotische Zellteilung IEC6” value [1] is reported as 2,45±0,21, the “subG1 apoptotische Zellteilung Panc1” value [2] is reported as 22,2 ± 1,6 and the “subG1 apoptotische Zellteilung Colo205” value (Colo205 Kolonkarzinom) is reported as 3,55 ± 0,07. For the same molecule, the “Wirkung auf Osteosarkome” value (Osteosarkome) was “zeigen eine Wirkung”, the “zentrale, vegetative und toxische Effekte (Verhaltensänderungen)” value (“zentrale … (Verhaltensänderungen)” for short) (Maus; 1•10^-3 mol/kg) was “keine Verhaltensänderungen” and the “zentrale … (Verhaltensänderungen)” value (Maus; 5•10^-3 mol/kg) was “Ataxie, Piloerektion, Grifistärkesenkung”. For the same molecule, the “zentrale … (Verhaltensänderungen)” value (Maus; 5•10^-4 mol/kg) was “keine Verhaltensänderungen”, the IC50 ([3]; WI-38, 200 - 12.5 µg/ml, 4 Tage, read-out: IC50 WI38) was 36 µg/mL (≈ 63.3 µM) and the IC50 (BxPC3 - Pankreaskrebs; BXPC-3, 200 - 12.5 µg/ml, 4 Tage, read-out: IC50 BxPC3) was 12.5 µg/mL (≈ 22 µM). For the same molecule, the IC50 (A431 Epidermalkarzinom; A-431, 200 - 12.5 µg/ml, 4 Tage, read-out: IC50 A431) was 34.5 µg/mL (≈ 60.6 µM), the IC50 (CRO2B - karzinoid; 200 - 12.5 µg/ml, 4 Tage) was 31.5 µg/mL (≈ 55.4 µM) and the IC50 ([4]; IEC-6, 200 - 12.5 µg/ml, 4 Tage, read-out: IC50 IEC6) was 17.2 µg/mL (≈ 30.2 µM). For the same molecule, the IC50 (HT29 - Kolonkarzinom; HT-29, 200 - 12.5 µg/ml, 4 Tage, read-out: IC50 HT29) was 34.4 µg/mL (≈ 60.5 µM), the IC50 (MIAPaCa2 - Pankreaskrebs; MIA PaCa-2, 200 - 12.5 µg/ml, 4 Tage, read-out: IC50 MlAPaCa2) was 400 µg/mL (≈ 703 µM) and the IC50 ([5]; NIH3T3, 200 - 12.5 µg/ml, 4 Tage, read-out: IC50 NIH3T3) was 42.5 µg/mL (≈ 74.7 µM). The IC50 (Normale Zellen; mean over normal cell lines) was 31.9 µg/mL (≈ 56.1 µM), the IC50 (Krebszellen; mean over cancer cell lines) was 28.2 µg/mL (≈ 49.6 µM) and the IC50 ([6]; BXPC-3, up to 500 µg/ml, read-out: IC50 BxPC3) was 45 µg/mL (≈ 79.1 µM). The IC50 (colo205 (Kofon-Karzinom); COLO 205, up to 500 µg/ml, read-out: IC50 Colo205) was 500 µg/mL (≈ 879 µM) and the IC50 (T47D (Brustkrebs); up to 500 µg/ml) was 15 µg/mL (≈ 26.4 µM).

For CCCCCCCCCCCCCCCCCC(=O)O[Si](CC)(CC)OC(=O)CCCCCCCCCCCCCCCCC [Si13, Di (octadecanoyloxy) diethylsilan], the “subG1 apoptotische Zellteilung Panc1” value [2] was 36,7 ± 0,5, the “subG1 apoptotische Zellteilung Colo205” value (Colo205 Kolonkarzinom) was 4,8 ± 0,49 and the IC50 ([3]; WI-38, read-out: IC50 WI38) was 16.5 µg/mL (≈ 25.3 µM). It also gave an IC50 (BxPC3 - Pankreaskrebs; BXPC-3, read-out: IC50 BxPC3) of 17.5 µg/mL (≈ 26.8 µM), an IC50 (A431 Epidermalkarzinom; A-431, read-out: IC50 A431) of 15.9 µg/mL (≈ 24.3 µM) and an IC50 (CRO2B - karzinoid) of 17.8 µg/mL (≈ 27.3 µM). The IC50 ([4]; IEC-6, read-out: IC50 IEC6) was 17 µg/mL (≈ 26 µM), the IC50 (HT29 - Kolonkarzinom; HT-29, read-out: IC50 HT29) was 18.3 µg/mL (≈ 28 µM) and the IC50 (MIAPaCa2 - Pankreaskrebs; [7]) was 110 µg/mL (≈ 168 µM). It also gave an IC50 ([5]; NIH3T3, read-out: IC50 NIH3T3) of 20.6 µg/mL (≈ 31.5 µM), an IC50 (Colo 205 - Kolonkarzinom) of 47.5 µg/mL (≈ 72.7 µM) and an IC50 (Normale Zellen) of 18 µg/mL (≈ 27.6 µM). For the same molecule, the IC50 (Krebszellen) was 17.3 µg/mL (≈ 26.5 µM), the IC50 ([6]; BXPC-3, read-out: IC50 BxPC3) was 10 µg/mL (≈ 15.3 µM) and the IC50 (colo205 (Kofon-Karzinom); [8]) was 125 µg/mL (≈ 191 µM). It also gave an IC50 (T47D (Brustkrebs)) of 8 µg/mL (≈ 12.2 µM).

CC[Si](CC)(OC(=O)CNC(=O)CNC(=O)CNC(=O)CN)OC(=O)CNC(=O)CNC(=O)CNC(=O)CN [Diethyl bis(tetraglycyl)silylester] (I: H-GGGG / II: H-GGGG; linker I:C-II:C via OSiEt2O) was tested, and the “Wirkung gegen Medulloblastome” value (Medulloblastome) was “zeigen eine Wirkung”.

For C[Si](C)(OC(=O)CNC(=O)CNC(=O)CNC(=O)CNC(=O)CNC(=O)CNC(=O)CNC(=O)CNC(=O)CN)OC(=O)CNC(=O)CNC(=O)CNC(=O)CNC(=O)CNC(=O)CNC(=O)CNC(=O)CNC(=O)CN [Dimethyl bis(nonaglycyl)silylester], the “Wirkung gegen Medulloblastome” value (Medulloblastome) was “zeigen eine Wirkung”.

In the case of CCCCCCCCCCCCCCCC(=O)O[Si](CC)(CC)OC(=O)CCCCCCCCCCCCCCC [Si11, Di (hexadecanoyloxy) diethylsilan], the “subG1 apoptotische Zellteilung IEC6” value [1] is reported as 7.0 ± 0,14, the “subG1 apoptotische Zellteilung Panc1” value [2] is reported as 37,7 ± 1,8 and the “subG1 apoptotische Zellteilung Colo205” value (Colo205 Kolonkarzinom) is reported as 3,3 ± 0,14. For the same molecule, the IC50 ([3]; WI-38, read-out: IC50 WI38) was 23.7 µg/mL (≈ 39.7 µM), the IC50 (BxPC3 - Pankreaskrebs; BXPC-3, read-out: IC50 BxPC3) was 20 µg/mL (≈ 33.5 µM) and the IC50 (A431 Epidermalkarzinom; A-431, read-out: IC50 A431) was 21.9 µg/mL (≈ 36.7 µM). For the same molecule, the IC50 (CRO2B - karzinoid) was 18.9 µg/mL (≈ 31.7 µM), the IC50 ([4]; IEC-6, read-out: IC50 IEC6) was 21.2 µg/mL (≈ 35.5 µM) and the IC50 (HT29 - Kolonkarzinom; HT-29, read-out: IC50 HT29) was 23.1 µg/mL (≈ 38.7 µM). It also gave an IC50 (MIAPaCa2 - Pankreaskrebs; [7]) of 82.5 µg/mL (≈ 138 µM), an IC50 ([5]; NIH3T3, read-out: IC50 NIH3T3) of 25 µg/mL (≈ 41.9 µM) and an IC50 (Normale Zellen) of 23.3 µg/mL (≈ 39 µM). The IC50 (Krebszellen) was 21.1 µg/mL (≈ 35.3 µM), the IC50 ([6]; BXPC-3, read-out: IC50 BxPC3) was 10 µg/mL (≈ 16.7 µM) and the IC50 (colo205 (Kofon-Karzinom); [8]) was 300 µg/mL (≈ 502 µM). It also gave an IC50 (T47D (Brustkrebs)) of 7 µg/mL (≈ 11.7 µM).

From patent publication EP1948196B1, “USE OF TETRAORGANOSILICON COMPOUNDS” (Salama, Zoser B., priority 2005, dated 2007)
